Structures can show the parent of a compound that is named as a salt.
Key:
HCV RNA (GT1-HCV) = test: Plasma HCV RNA reduction in GT1-HCV infected patients (Part B); format: in vivo
Experimental: Plasma HCV RNA determinations were performed through the use of a validated commercial assay. Baseline was defined as the mean of Day −1 and Day 1 (pre-dose). […] The mean maximum HCV RNA reduction 24 hours post-dose following a single 300 mg dose was 1.7 log10 IU/mL and this compares to a-2 log10 IU/mL reduction after 1 day of 400 mg of sofosbuvir monotherapy in GT1a HCV-infected subjects. The mean maximum HCV RNA reduction 24 hours post-dose following a single 100 mg dose was 0.8 log10 IU/mL. The mean maximum HCV RNA reduction was 2.2 log10 IU/mL following a single 400 mg dose.

[1] = Accelerated stability (40 ± 2° C./75 ± 5% RH) of Compound 2; format: physicochemical
Experimental: Three conditions were tested: accelerated stability (40 2° C./75±5% RH) over a 6-month time period, ambient stability (25±2° C./60±5% RH) over a 9-month period, and stability under refrigerator conditions (5 3° C.) over a 9-month time period. The results for accelerated stability, ambient stability, and refrigerator conditions are shown in Table 23, Table 24, and Table 25, respectively.
After six months, the total related substance 1 impurities was only 0.08% and there was no detection of related substance 2 and isomers.

[2] = Chemical stability of Compound 2 at 25 and 40° C. over 6 months; format: physicochemical
Experimental: The container closure system for the study was a combination medicinal valve bag with a pharmaceutical laminated film over the pouch and desiccant silica gel between the two layers. […] Bags were then stored at 25° C./60% RH (relative humidity) and 40° C./75% RH (relative humidity). Organic purity, water content, ^1HNMR, DSC and Raman were measured at Time 0, Month 1, Month 2, Month 3 and Month 6.
The sample was dissolved in acetonitrile-water (90:10) (v/v). The gradient method is shown below.
At 25° C., the percent of degradation product increased from 0.03% at Day 0 to 0.08% after 6 months. At 40° C., the percent of degradation product increased from 0.03% to 0.39%. Over the course of 6 months, the percent of water increased approximately 0.6% at 25° C. and increased approximately 0.7% at 40° C.

[3] = Plasma levels of metabolites following single oral doses of Compound 2, monkeys; format: in vivo, monkey; details: for AUC(0-t) / Cmax / Tmax: monkey, plasma, po
[4] = Head-to-head comparison of plasma levels in dogs dosed with Compound 1 and Compound 2; format: in vivo, dog; details: dosed Compound 1 25 mg/kg or Compound 2 30 mg/kg, normalized to a dose of 25 mg/kg
Experimental: A head-to-head comparison of dogs dosed with Compound 1 and Compound 2 was conducted.

## CNc1nc(N)nc2c1ncn2[C@@H]1O[C@H](CO[P@@](=O)(N[C@@H](C)C(=O)OC(C)C)Oc2ccccc2)[C@@H](O)[C@@]1(C)F [Compound 2, hemi-sulfate salt of isopropyl((S)-(((2R,3R,4R,5R)-5-(2-amino-6-(methylamino)-9H-purin-9-yl)-4-fluoro-3-hydroxy-4-methyltetrahydrofuran-2-yl)methoxy)(phenoxy)phosphoryl)-L-alaninate]
HCV RNA (GT1-HCV); 24 hours post-dose, single 100 mg dose
  Mean maximum HCV RNA reduction: 0.8 log10 IU/mL
HCV RNA (GT1-HCV); 24 hours post-dose, single 300 mg dose
  Mean maximum HCV RNA reduction: 1.7 log10 IU/mL
HCV RNA (GT1-HCV); single 400 mg dose
  Mean maximum HCV RNA reduction: 2.2 log10 IU/mL
[1]; 40° C./75% RH, 0 month
  Appearance: White
  Assay: 98.8%
  IR: correspond
  Related Substance 1: Any other single impurity: 0.01%
  Related Substance 1: Total Impurities: 0.01%
  Water: 0.45%
[1]; 40° C./75% RH, 1st month
  Appearance: White
  Assay: 101.5%
  Related Substance 1: Any other single impurity: 0.02%
  Related Substance 1: Total Impurities: 0.02%
  Water: 0.21%
[1]; 40° C./75% RH, 3rd month
  Appearance: White
  Assay: 99.6%
  IR: correspond
  Related Substance 1: Any other single impurity: 0.01%
  Related Substance 1: Total Impurities: 0.02%
  Water: 0.36%
[1]; 40° C./75% RH, 6th month
  Appearance: White
  Assay: 99.5%
  IR: correspond
  Related Substance 1: Any other single impurity: 0.05%
  Related Substance 1: Impurity F: 0.01%
  Related Substance 1: Total Impurities: 0.08%
  Water: 0.41%
[1]; accelerated stability conditions (40° C./75% RH), 6 months
  Stability: remains a white solid
[2]; 25° C.
  Increase of the percent of water over 6 months: approximately 0.6%
[2]; 25° C./60% RH, Day 0
  Maximum Impurity Percent: 0.12%
  Percent Purity: 99.82%
  Percent Water: 1.2%
[2]; 25° C./60% RH, Month 1
  1HNMR compared with Day 0: The same as
  DSC compared with Day 0: The same as
  Maximum Impurity Percent: 0.12%
  Percent Purity: 99.77%
  Percent Water: 1.9%
  Raman compared with Day 0: The same as
[2]; 25° C./60% RH, Month 2
  1HNMR compared with Day 0: The same as
  DSC compared with Day 0: The same as
  Maximum Impurity Percent: 0.12%
  Percent Purity: 99.75%
  Percent Water: 1.8%
  Raman compared with Day 0: The same as
[2]; 25° C./60% RH, Month 3
  1HNMR compared with Day 0: The same as
  DSC compared with Day 0: The same as
  Maximum Impurity Percent: 0.12%
  Percent Purity: 99.75%
  Percent Water: 1.8%
  Raman compared with Day 0: The same as
[2]; 25° C./60% RH, Month 6
  1HNMR compared with Day 0: The same as
  DSC compared with Day 0: The same as
  Maximum Impurity Percent: 0.13%
  Percent Purity: 99.74%
  Percent Water: 1.8%
  Raman compared with Day 0: The same as
[2]; 40° C.
  Increase of the percent of water over 6 months: approximately 0.7%
[2]; 40° C./75% RH, Day 0
  Maximum Impurity Percent: 0.12%
  Percent Purity: 99.82%
  Percent Water: 1.2%
[2]; 40° C./75% RH, Month 1
  1HNMR compared with Day 0: The same as
  DSC compared with Day 0: The same as
  Maximum Impurity Percent: 0.12%
  Percent Purity: 99.71%
  Percent Water: 2.0%
  Raman compared with Day 0: The same as
[2]; 40° C./75% RH, Month 2
  1HNMR compared with Day 0: The same as
  DSC compared with Day 0: The same as
  Maximum Impurity Percent: 0.12%
  Percent Purity: 99.63%
  Percent Water: 1.9%
  Raman compared with Day 0: The same as
[2]; 40° C./75% RH, Month 3
  1HNMR compared with Day 0: The same as
  DSC compared with Day 0: The same as
  Maximum Impurity Percent: 0.12%
  Percent Purity: 99.58%
  Percent Water: 1.9%
  Raman compared with Day 0: The same as
[2]; 40° C./75% RH, Month 6
  1HNMR compared with Day 0: The same as
  DSC compared with Day 0: The same as
  Maximum Impurity Percent: 0.14%
  Percent Purity: 99.30%
  Percent Water: 1.9%
  Raman compared with Day 0: The same as
[2]; stored for 6 months at 25 and 40° C.
  Rate of degradation: minimal
[3]; 30 mg/kg
  AUC(0-t): 176 ng·h/mL
  Cmax: 63.5 ng/mL
  Tmax: 0.5 to 2 h
[3]; 100 mg/kg
  AUC(0-t): 1100 ng·h/mL
  Cmax: 783 ng/mL
  Tmax: 1 to 2 h
[3]; 300 mg/kg
  AUC(0-t): 1600 ng·h/mL
  Cmax: 501 ng/mL
  Tmax: 204 h
[3]; monkeys, high dose group
  Vomiting (animals affected): 1/5
[3]; monkeys, single oral doses of Compound 2
  Dose proportionality of Compound 1 exposures: roughly dose-proportional
[4]
  Mean Dose-normalized AUC(0-4hr) for Compound 1: 1.0 µM·h

Source: US20210087217A1, “NUCLEOTIDE HEMI-SULFATE SALT FOR THE TREATMENT OF HEPATITIS C VIRUS” (Atea Pharmaceuticals, Inc., priority 2017, published 2021)
